Literature values in patent US4178376A, “Method for inducing rapid therapeutically effective antimalarial levels of certain selected conventional antimalarials” (Interx Research Corporation, priority 1977, dated 1979).

Conditions: water

aqueous solubility | SMILES
approximately 7.0 mg per liter of water | CCCCN(CCCC)CCC(O)c1cc(-c2ccc(C(F)(F)F)cc2)nc(-c2ccc(C(F)(F)F)cc2)c1 (centres unmarked) [3-Dibutylamino-1-[2,6-bis(4-trifluoromethylphenyl)-4-pyridyl] propanol]
approximately 1.0 mg per liter of water | CCCCN(CCCC)CC(O)c1cc(-c2ccc(Cl)c(Cl)c2)nc2c(Cl)cc(Cl)cc12 (centres unmarked) [Compound I]
